Source: patent publication US5760048A, “Alpha-mercaptoacrylic acid derivatives having calpain inhibitory activity” (Warner-Lambert Company, priority 1996, dated 1998)
Like-named read-outs stand apart in the source and are kept apart here.

Key:
calpain I = target: T1, calpain I (Homo sapiens, UniProt P07384); experiment: Assay of Calpain Activity (casein substrate, microplate, Coomassie blue); assay type: biochemical; set-up: Calpain I was purified from human erythrocytes; from tissue; host or cells: human erythrocytes
T1 sequence (P07384 1-714): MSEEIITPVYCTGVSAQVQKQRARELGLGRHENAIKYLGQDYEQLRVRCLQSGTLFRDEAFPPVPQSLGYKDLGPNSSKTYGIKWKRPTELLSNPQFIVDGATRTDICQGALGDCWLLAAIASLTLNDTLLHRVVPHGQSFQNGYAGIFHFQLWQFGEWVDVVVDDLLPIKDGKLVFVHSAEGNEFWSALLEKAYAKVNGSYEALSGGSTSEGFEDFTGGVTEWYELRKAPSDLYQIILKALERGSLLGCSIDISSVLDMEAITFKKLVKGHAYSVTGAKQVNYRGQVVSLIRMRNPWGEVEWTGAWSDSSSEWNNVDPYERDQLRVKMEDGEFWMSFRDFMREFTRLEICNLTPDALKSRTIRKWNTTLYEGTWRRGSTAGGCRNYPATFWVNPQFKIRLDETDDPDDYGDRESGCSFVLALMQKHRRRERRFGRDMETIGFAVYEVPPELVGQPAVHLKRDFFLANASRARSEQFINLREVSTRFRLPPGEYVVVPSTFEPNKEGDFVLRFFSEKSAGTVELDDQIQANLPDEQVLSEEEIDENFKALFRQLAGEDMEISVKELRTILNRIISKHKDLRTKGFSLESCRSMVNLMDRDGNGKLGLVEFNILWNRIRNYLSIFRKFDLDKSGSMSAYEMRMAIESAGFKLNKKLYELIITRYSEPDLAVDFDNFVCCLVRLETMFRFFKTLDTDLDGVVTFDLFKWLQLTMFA
T1 sequence (P04632 1-268 partner): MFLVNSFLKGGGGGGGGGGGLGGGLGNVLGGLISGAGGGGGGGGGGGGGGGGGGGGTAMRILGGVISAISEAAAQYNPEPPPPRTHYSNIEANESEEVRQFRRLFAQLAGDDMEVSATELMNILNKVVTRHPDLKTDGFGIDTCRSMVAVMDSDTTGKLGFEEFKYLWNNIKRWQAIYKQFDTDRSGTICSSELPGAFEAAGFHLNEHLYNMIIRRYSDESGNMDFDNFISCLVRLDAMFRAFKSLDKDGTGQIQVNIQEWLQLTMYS
Description: In 250 μL of reaction mixture, substrate casein (0.5 mg/mL) was incubated with 0.01 unit (80-120 ng) calpain I, 20 mM dithiothreitol (DTT), 50 mM Tris-HCl (pH 7.4 at 25° C.), and 4 mM CaCl2 at 25° C. for 60 minutes. Two 100-μL aliquots were taken for Coomassie blue binding analysis to quantify the remaining casein.
Calpain I was assayed as described (α-mercaptoacrylic acid). […] Inhibition of these proteases are presented as IC50.

trypsin = target: T2, trypsin (Bos taurus, UniProt P00760); experiment: Selectivity: trypsin protease assay (casein substrate); assay type: biochemical, bovine; settings: Table II; read-out: Inhibitory Activity of Thiol-Acrylates, Trypsin (IC50)
T2 construct: purchased Sigma T8003; host or cells: bovine pancreas
T2 sequence (P00760 24-246): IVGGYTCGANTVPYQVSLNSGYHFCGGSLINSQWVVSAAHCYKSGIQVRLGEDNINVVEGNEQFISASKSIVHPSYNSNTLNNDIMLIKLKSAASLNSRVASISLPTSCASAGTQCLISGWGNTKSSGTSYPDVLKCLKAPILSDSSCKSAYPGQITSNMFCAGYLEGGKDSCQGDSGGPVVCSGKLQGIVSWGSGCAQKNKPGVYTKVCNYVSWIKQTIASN
Description: (§1) Calpain I was assayed as described (α-mercaptoacrylic acid). Ten to 20 ng papain (papaya latex, Sigma, P3125), 1.25 μg trypsin (bovine pancreas, Sigma, T8003), and 5 μg thermolysin (Bacillus thermoproteolyticus, Sigma, P1512) were assayed using 0.5 mg/mL casein as substrate in the microplate format (250 μL reaction volume), essentially as described by Buroker-Kilgore M., Wang K. K. W., Anal Biochem 1993;208:387-392. Inhibition of these proteases are presented as IC50.

papain = target: T3, papain (Carica papaya, UniProt P00784); experiment: Selectivity: papain protease assay (casein substrate); assay type: biochemical; settings: Table II; read-out: Inhibitory Activity of Thiol-Acrylates, Papain (IC50)
T3 construct: purchased Sigma P3125; host or cells: papaya latex
T3 sequence (P00784 134-345): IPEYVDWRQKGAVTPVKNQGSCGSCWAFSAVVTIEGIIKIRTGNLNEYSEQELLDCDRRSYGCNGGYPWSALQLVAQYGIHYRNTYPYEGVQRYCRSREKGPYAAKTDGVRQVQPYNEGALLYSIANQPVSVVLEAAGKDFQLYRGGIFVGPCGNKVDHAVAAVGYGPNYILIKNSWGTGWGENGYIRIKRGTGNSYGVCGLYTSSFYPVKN
Description: as §1

thermolysin = target: T4, thermolysin (Bacillus thermoproteolyticus, UniProt P00800); experiment: Selectivity: thermolysin protease assay (casein substrate); assay type: biochemical
T4 construct: purchased Sigma P1512; host or cells: Bacillus thermoproteolyticus
T4 sequence (P00800 233-548): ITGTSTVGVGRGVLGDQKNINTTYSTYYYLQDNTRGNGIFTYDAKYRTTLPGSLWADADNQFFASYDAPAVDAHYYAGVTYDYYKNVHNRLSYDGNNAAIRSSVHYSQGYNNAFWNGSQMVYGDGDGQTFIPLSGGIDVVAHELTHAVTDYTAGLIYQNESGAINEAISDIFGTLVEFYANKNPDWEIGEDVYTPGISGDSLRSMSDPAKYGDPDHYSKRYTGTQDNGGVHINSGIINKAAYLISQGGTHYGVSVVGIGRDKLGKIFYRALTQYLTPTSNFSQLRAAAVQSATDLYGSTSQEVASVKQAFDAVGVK
Description: as §1

[1] = test system: Fetal rat cortical cell cultures; experiment: Assay of Lactate Dehydrogenase (LDH): NMDA-induced LDH release; assay type: cell-based; settings: FIG. II; for block of NMDA-induced LDH release (in words): 500 μM NMDA, 200 μM calpain inhibiting compound
Description: Seventeen-day-old cultures were pretreated with 200 μM calpain inhibiting compound (when added) for 1 hour before treatment of 500 μM N-methyl-D-aspartate (NMDA) for 30 minutes (in the absence or the presence of the compound).

[2] = test system: spectrin breakdown in rat cortical cell cultures; experiment: Spectrin Breakdown Measurement (immunoblot); assay type: cell-based; settings: NMDA-treated cortical cells, 4-hour post-NMDA
Description: Rat cortical cell cultures were treated with NMDA in the absence or presence of calpain inhibiting compounds as described in "Assay of LDH" above. At the end of the 4-hour post-NMDA incubation, cells were lysed with 300 μL buffer containing 20 mM Tris-HCL (pH 7.4 at 4° C.), 1% SDS, 5 mM EGTA, 5 mM EDTA, 1 mM DTT, and various protease inhibitors. Total cellular protein was precipitated by 100 μL of 100% trichloroacetic acid. The samples were centrifuged and the pelleted protein solubilized with 50 μl of 3M Tris base. […] The blots were then probed with rabbit antibrain spectrin antibody (primary antibody) followed by alkaline phosphatase-conjugated goat antirabbit immunoglobulin G antibody (secondary antibody). […] The SBP were quantified by densitometry (BioRad Model 620).

[3] = Table I, 4 mM CaCl2, pH 7.4, 25° C., 60 minutes, read-out: Inhibitory Activity Against Human Calpain I IC50
[4] = Table II (selectivity), read-out: Inhibitory Activity of Thiol-Acrylates, Calpain (IC50)

O=C(O)/C(S)=C/c1c[nH]c2ccc(F)cc12 [Example 4, 3-(5-fluoro-3-indolyl)-2-mercapto-2-propenoic Acid]
IC50 (calpain I; [3]): 0.45 µM

O=C(O)/C(S)=C/c1ccc(I)cc1 [Example 8, (Z)-2-propenoic Acid, 3-(4-iodophenyl)-2-mercapto]
IC50 (trypsin): > 500 µM
IC50 (calpain I): 0.36 µM
IC50 (papain): > 500 µM
IC50 (thermolysin): 204 µM

O=C(O)/C(S)=C/c1ccc(F)cc1 [Example 10, 2-Propenoic Acid, 3-(4-fluorophenyl)-2-mercapto]
IC50 (calpain I; [3]): 1.2 µM

CCn1c2ccccc2c2cc(/C=C(\S)C(=O)O)ccc21 [Example 12]
IC50 (calpain I; [3]): 1.1 µM

COc1ccc(/C(C)=C(\S)C(=O)O)cc1 [Example 14, (Z)-2-Butanoic Acid, 2-mercapto-3-(4-methoxyphenyl)]
inhibition at 200 µM (calpain I; at 200 μM, Table I, read-out: Inhibitory Activity Against Human Calpain I, % inhibition): 66%

O=C(O)/C(S)=C/c1ccc(-c2ccccc2)cc1 [Example 16, (Z)-2-Propenoic Acid, 3-[1,1'-biphenyl)-4-yl-2-mercapto]
IC50 (calpain I; [3]): 3 µM

O=C(O)/C(S)=C/c1ccc(OCc2ccccc2)cc1 [Example 18, (Z)-2-Propenoic Acid, 2-mercapto-3-[4-(phenylmethoxy)phenyl]]
IC50 (calpain I; [3]): 1.8 µM
block of NMDA-induced LDH release (in words) [1]: partially blocked

O=C(O)/C(S)=C/c1cccc2ccccc12 [Example 20, (Z)-2-Propenoic Acid, 2-mercapto-3-(1-naphthalenyl)]
IC50 (calpain I; [3]): 3.6 µM

O=C(O)/C(S)=C/c1c[nH]c2ccccc12 [Example 22, (Z)-2-Propenoic Acid, 3-(1H-indol-3-yl)-2-mercapto]
IC50 (trypsin): > 200 µM
IC50 (calpain I; [3]): 1.3 µM
IC50 (calpain I; [4]): 1.3 µM
IC50 (papain): > 200 µM
IC50 (thermolysin): 248 µM
spectrin breakdown product (SBP) formation, 150 kDa and 145 kDa (in words) [2]: partially blocked SBP formation

O=C(O)/C(S)=C/c1cc2ccccc2[nH]1 [Example 25, 3-(2-indolyl)-2-mercapto-2-propenoic Acid]
IC50 (calpain I; [3]): 1.7 µM

O=C(O)/C(S)=C/c1cc2ccccc2c2ccccc12 [Example 27, 3-(9--phenanthyl)-2-mercapto-2-propenoic Acid]
IC50 (calpain I; [3]): 3.1 µM

O=C(O)/C(S)=C/c1cccs1 [Example 29]
IC50 (calpain I; [3]): 4 µM

O=C(O)/C(S)=C/c1cc2ccccc2o1 [Example 31, (Z)-2-Propenoic Acid, 3-(2-benzofuranyl)-2-mercapto]
IC50 (calpain I; [3]): 3.2 µM

COc1ccc2cc(/C=C(\S)C(=O)O)ccc2c1 [Example 34, (Z)-2-Propenoic Acid, 2-mercapto-3-(6-methoxy-2-naphthalenyl)]
IC50 (calpain I; [3]): 2.1 µM

O=C(O)/C(S)=C/c1ccc2c(c1)OCO2 [Example 36, (Z)-2-propenoic acid, 3-(5-benzodioxoyl)-2-mercapto]
IC50 (calpain I; [3]): 1.2 µM

Cc1cc(/C=C(\S)C(=O)O)c(C)n1-c1ccccc1 [Example 38, (Z)-2-Propenoic Acid, 3-(2,5-dimethyl-1-phenyl-1H-pyrrol-3-yl)-2-mercapto]
IC50 (calpain I; [3]): 13.6 µM

CC(C)(C)c1ccc(/C=C(\S)C(=O)O)cc1 [Example 40, (Z)-2-propenoic Acid, 3-[4-(1,1-dimethylethyl)phenyl]-2-mercapto]
IC50 (calpain I; [3]): 7.8 µM

O=C(O)/C(S)=C/c1c(-c2ccc(Cl)cc2)[nH]c2ccccc12 [Example 42, (Z)-2-propenoic acid, 3-[2-(4-chlorophenyl)-1H-indol-3-yl]-2-mercapto]
IC50 (calpain I; [3]): 6 µM

O=C(O)/C(S)=C/c1ccc2c(c1)CCCC2 [Example 44, (Z)-2-propenoic acid, 2-mercapto-3-(5,6,7,8-tetrahydro-2-naphthalenyl)]
IC50 (calpain I; [3]): 1.7 µM

O=C(O)/C(S)=C/c1ccc(CCc2ccccc2)cc1 [Example 47, (Z)-2-Propenoic Acid, 2-mercapto-3-[4-(2-phenylethyl)-phenyl]]
IC50 (calpain I; [3]): 2.7 µM

O=C(O)/C(S)=C/c1ccsc1 [Example 49, (Z)-2-Propenoic Acid, 3-(3-thienyl)-2-mercapto]
IC50 (calpain I; [3]): 7.5 µM

O=C(O)/C(S)=C/c1ccccc1 [Example 51, 2-Propenoic Acid, 2-mercapto-3-phenyl]
IC50 (trypsin): > 200 µM
IC50 (calpain I; [3]): 5.9 µM
IC50 (calpain I; [4]): 5.9 µM
IC50 (papain): > 200 µM
IC50 (thermolysin): 367 µM

O=C(O)/C(S)=C/c1ccc2c(c1)Cc1ccccc1-2 [Example 53, 2-Propenoic Acid, 3-(9H-fluoren-2-yl)-2-mercapto]
IC50 (calpain I; [3]): 1.6 µM

C[C@]12N[C@H](Cc3ccccc31)c1ccccc12 [MK-801, reference compound]
block of NMDA-induced LDH release (in words) [1]: blockable
spectrin breakdown product (SBP) formation, 150 kDa and 145 kDa (in words) [2]: inhibited the SBP formation

CN[C@H](CC(=O)O)C(=O)O [NMDA, N-methyl-D-aspartate, reference compound]
LDH release from the cells ([1]; 500 μM NMDA 30 minutes, additional 4 hours): about 210 unit/mL
